Assays:
C. elegans = C. elegans nematode activity assay, 2-fold dilutions from 140 μM, visual evaluation at Day 4 (Example 3); assay type: in vivo, Caenorhabditis elegans
Experimental: The eggs were allowed to hatch, and the L1 larvae collected. See The Nematode Caenorhabditis elegans (1988) Cold Spring Harbor Laboratory Press. Using a Matrix Programmable Pipette, the L1s were distributed into 96-well tissue culture plates, 20 L1 in 50 μl NGM per well. Antibiotic/Antimyoticwas added to each well, and 1% by weight E. coli strain HB101. The subject anthelmintic compounds were stored at 5 mM in 100% DMSO. 0.7 μl of compounds 1-31 were added to the left-most column of wells to yield a final concentration of 70 μM in 1.4% DMSO, with 1.4% DMSO only as the control. The compounds were then subjected to 5 more 3-fold dilutions from left to right to yield 6 column concentrations of 70 μM, 23.3 μM, 7.8 μM, 2.6 μM, 0.9 μM, and 0.3 μM. Plates were stored in air-tight Rubbermaid plastic boxes at 20° C. The nematodes had cleared all control wells by day 4, and nematode viability was scored by visual examination under a 100× dissecting microsope on day 5. A visual viability scoring system was used as follows:
The C. elegans nematode activity assay for anthelmintic compounds 32-46 was similar to that described in Example 2 above, except for the following noted differences. The compound concentrations were adjusted to 140 μM and subjected to 2-fold dilutions to yield 140 μM, 70 μM, 35 μM, 17.5 μM, 8.8 μM, 4.4 μM, 2.2 μM, and 1.09 μM.

Meloidogyne incognita = conditions: cited from earlier work
Caenorhabditis elegans = test: C. elegans L1 nematicidal dose response in 96-well plates, 5 day visual score (Example 2; same procedure for Example 7, Table 3); assay type: in vivo; parameters: key to 5 Day Visual Score V1 / 5 Day Visual Score V2 / 5 Day Visual Score V3 / 5 Day Visual Score V4 / 5 Day Visual Score V6 / 5 Day Visual Score V5 / Initial HTS Run Visual Score / Follow-up HTS Run Visual Score: Dead: only stiff L1s (no movement); Dead (L4): worms are dead, but at a later larval stage; majority of worms are L1 (based on size) worms move when plate is tapped; majority of worms are L2 (based on size); majority of worms are L3 (based on size); majority of worms are L4 (based on size); AD: majority of worms are adult; #AD: 5 adult worms or less; B!: sterile (0-25 progeny); B: low broodsize (25-100 progeny); ˜B: moderate broodsize (100-250 progeny); <: reduced broodsize (250-500 progeny); OK: no effect (˜1000+ progeny); conditions: for 5 Day Visual Score V1: dilution V1, 5 day; for 5 Day Visual Score V3: dilution V3, 5 day; for 5 Day Visual Score V4: dilution V4, 5 day; for 5 Day Visual Score V5: dilution V5, 5 day; for 5 Day Visual Score V6: dilution V6, 5 day
Summary of the method: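 Scoring was by eye at 100× on day 5, after incubation at 20° C, of 20 C. elegans L1s per well fed 1% E. coli HB101 in NGM. Compound columns V1–V6 spanned 70 μM to 0.3 μM in 3-fold steps, with 1.4% DMSO in the top well and as control.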

| Structure (SMILES) | visual evaluation of viability (C. elegans; 8.8 μM) | Follow-up HTS Run % Run (Caenorhabditis elegans) [%] | Follow-up HTS Run Visual Score (Caenorhabditis elegans) | Follow-up HTS Run mOD (Caenorhabditis elegans) [mOD] | Initial HTS Run % Run (Caenorhabditis elegans) [%] | Initial HTS Run Visual Score (Caenorhabditis elegans) | Initial HTS Run mOD (Caenorhabditis elegans) [mOD] | 5 Day Visual Score V1 (Caenorhabditis elegans; dose response) | 5 Day Visual Score V3 (Caenorhabditis elegans; dose response) | 5 Day Visual Score V4 (Caenorhabditis elegans; dose response) | 5 Day Visual Score V5 (Caenorhabditis elegans; dose response) | 5 Day Visual Score V6 (Caenorhabditis elegans; dose response) | further results |
| --- | --- | --- | --- | --- | --- | --- | --- | --- | --- | --- | --- | --- | --- |
| NCc1ccc(-c2ccccc2)cc1 [AKC-138] | B (low broodsize (25-100 progeny)) |  |  |  |  |  |  |  |  |  |  |  |  |
| CCCCCCCCOc1ccc2nc(CCSC)[nH]c2c1 [AKC-144] | OK (no effect (˜1000+ progeny)) |  |  |  |  |  |  |  |  |  |  |  | visual evaluation of viability (C. elegans; 1.09 μM): OK (no effect (˜1000+ progeny)); visual evaluation of viability (C. elegans; 2.2 μM): OK (no effect (˜1000+ progeny)); visual evaluation of viability (C. elegans; 4.4 μM): OK (no effect (˜1000+ progeny)); visual evaluation of viability (C. elegans; 17.5 μM): ˜B (moderate broodsize (100-250 progeny)); visual evaluation of viability (C. elegans; 35 μM): B (low broodsize (25-100 progeny)); visual evaluation of viability (C. elegans; 70 μM): L4/AD/B |
| CC[C@H](C)[C@H]1O[C@]2(CC(O)[C@@H]1C)C[C@@H]1C[C@@H](C/C=C(\C)[C@@H](OC3CC(OC)C(OC4CC(OC)C(O)C(C)O4)C(C)O3)[C@@H](C)/C=C/C=C3\CO[C@@H]4[C@H](O)C(C)=C[C@@H](C(=O)O1)[C@]34O)O2 (some centres unmarked) [Avermectin B2a] |  |  |  |  |  |  |  |  |  |  |  |  | activity against the root-knot nematode (Meloidogyne incognita): active |
| COc1ccc(CCN(C)c2nc(NC3CCCCCCCCCCC3)ns2)cc1OC [compound 337] |  | 68 | Dead | 110 | 90 | Dead | 99 | Dead | Dead | B (low broodsize (25-100 progeny)) | OK (no effect (˜1000+ progeny)) | OK (no effect (˜1000+ progeny)) | 5 Day Visual Score V2 (Caenorhabditis elegans; dose response, dilution V2, 5 day): Dead |
| FC(F)(F)c1cccc(N2CCN(c3nc(Cl)ns3)CC2)c1 [compound 338] |  | 116 | B (low broodsize (25-100 progeny)) | 186 | 94 | 3AD/B | 103 | Dead | < (reduced broodsize (250-500 progeny)) | OK (no effect (˜1000+ progeny)) | OK (no effect (˜1000+ progeny)) | < (reduced broodsize (250-500 progeny)) |  |

— US20020002171A1, “Materials and methods for killing nematodes and nematode eggs” (priority 2000, published 2002)
